In US20200022998A1, “MEDICAL USE OF NOTCH4 OR INHIBITORS THEREOF” (BEIJING INSTITUTE OF GENOMICS, CHINESE ACADEMY OF SCIENCES, priority 2016, published 2020):

How the values were obtained:
Assay type in all cases: cell-based, human
[1] = test system: umbilical cord blood-derived CD34+ cells; assay: in vitro megakaryocyte lineage differentiation of umbilical cord blood-derived CD34+ cells, flow cytometry; settings: 10 μM; for number of mature megakaryocytes (CD41+CD42+) produced, increase vs control group: FIG. 15; for proportion of mature megakaryocyte (CD61+), increase vs control group / proportion of mature megakaryocytes MK (CD41+CD42+) produced, increase vs control group: cells collected at D14, FIG. 14
Method: (1) CD34^+ cells in umbilical cord blood were obtained by Ficoll-Paque PLUS density gradient centrifugation and magnetic bead sorting using CD34 MicroBead Kit. As to the particular steps, please refer to (GE Healthcare Life Sciences, http://www.gelifesciences.com), (Miltenyi Biotec, http://www.miltenyibiotec.com.cn).
(2) Differentiation of umbilical cord blood-derived CD34^+ cells into megakaryocytes: umbilical cord blood-derived CD34^+ cells were counted, and seeded at 1*10^6 cells to 4 ml StemSpan™ SFEM 11+50 ng/ml SCF+50 ng/ml TPO+50 ng/ml IL-6+20 ng/ml IL-3 in a 12-well plate, with 1 ml medium for each well, and four wells in total, to which 10 μM R04929097, 10 μM L-685458, 10 μM DAPT, and the same volume of DMSO as control were added, respectively, and the time was recorded as Day 0. The liquid was changed every 3 days, and the culture condition was 37° C., 5% CO2. After incubation for 6 days, the cell density was high, and the cells in each well were divided into two wells of a 12-well plate, with 2 ml medium for each well. The inhibitors were added at the same concnetrations as described above. The cells were collected at D14, counted, and detected for cell surface markers (CD41, CD42, CD61) by flow cytometer.
As to the collection of umbilical cord blood-derived CD34^+ cells, in vitro megakaryocytic differentiation and detection, please refer to Example 4-1.

[2] = test system: iPSCs-derived CD34+ cells; assay: polyploid detection, iPSC-derived CD34+ cells; settings: 10 μM; Notch inhibitor added since Day 5; DMSO about 18%; FIG. 17
Method: iPSC-derived CD34^+ cells (prepared by the method as described in Example 3-2) and umbilical cord blood-derived CD34^+ cells were seeded at 1*10^6 cells per well to 4 ml StemSpan™ SFEM 11+50 ng/ml SCF+50 ng/ml TPO+50 ng/ml IL-6+20 ng/ml IL-3, in a 12-well plate, with 1 ml medium for each well, and 3 wells in total for each cell line, […] The liquid was changed every 3 days, and the culture condition was 37° C., 5% CO2. After iPSC-derived CD34^+ cells were incubated for 6 days, and umbilical cord blood-derived CD34^+ cells were incubated for 9 days, the following experiment was carried out.
(§1) Cells were labeled with CD61-FITC flow cytometric antibody at 4° C. for 30 min. The cells were washed with PBS once, and fixed with 70% ethanol at 4° C. overnight. At the second day, the cells were washed with PBS once. After centriguation, 1 ml PBE (PBS containing 2% serum) +100 μg/ml RNase A +50 μg/ml Propidium Iodide, was added, and incubation was carried out in dark at room temperature for 30 min. The cells were washed with PBS once, and the number of cells (≥8N) in CD61^+ cell population was determined by flow cytometry.

[3] = test system: umbilical cord blood-derived CD34+ cells; assay: polyploid detection, umbilical cord blood-derived CD34+ cells; settings: 10 μM; DMSO about 16%; FIG. 18
Method: (§2) iPSC-derived CD34^+ cells (prepared by the method as described in Example 3-2) and umbilical cord blood-derived CD34^+ cells were seeded at 1*10^6 cells per well to 4 ml StemSpan™ SFEM 11+50 ng/ml SCF+50 ng/ml TPO+50 ng/ml IL-6+20 ng/ml IL-3, in a 12-well plate, with 1 ml medium for each well, and 3 wells in total for each cell line, to which 10 μM RO4929097, 10 μM DAPT, and the same volume of DMSO as control, were added, respectively, and the time was recorded as Day 0. The liquid was changed every 3 days, and the culture condition was 37° C., 5% CO2. After iPSC-derived CD34^+ cells were incubated for 6 days, and umbilical cord blood-derived CD34^+ cells were incubated for 9 days, the following experiment was carried out.
as §1

[4] = test system: iPSCs-derived CD34+ cells; assay: proplatelet formation, iPSC-derived CD34+ cells; settings: 10 μM; DMSO about 47%; FIG. 19D
Method: as §2
Proplatelet formation of MKs referred to mature megakaryocytes, which extended long and branched filaments and cytoplasmic protrusions.

`C[C@H](NC(=O)Cc1cc(F)cc(F)c1)C(=O)N[C@H](C(=O)OC(C)(C)C)c1ccccc1` [DAPT] was tested, and the “number of mature megakaryocytes (CD41+CD42+) produced, increase vs control group” value [1] was 2.9 folds, the “proportion of mature megakaryocyte (CD61+), increase vs control group” value [1] was 2.5 folds and the “proportion of mature megakaryocytes MK (CD41+CD42+) produced, increase vs control group” value [1] was 4.1 folds. For the same compound, the “proportion of polyploid megakaryocytes (≥8N) in CD61+ megakaryocytes” value (“proportion of polyploid megakaryocytes” for short) [2] was about 21%, the “proportion of polyploid megakaryocytes” value [3] was about 12% and the “proportion of proplatelet-bearing MKs in 100 differentiated cells” value [4] was about 50%.

With `CC(C)(C(=O)NCC(F)(F)C(F)(F)F)C(=O)N[C@@H]1C(=O)Nc2ccccc2-c2ccccc21` [RO4929097] the “number of mature megakaryocytes (CD41+CD42+) produced, increase vs control group” value [1] was 2.9 folds, the “proportion of mature megakaryocyte (CD61+), increase vs control group” value [1] was 3.1 folds and the “proportion of mature megakaryocytes MK (CD41+CD42+) produced, increase vs control group” value [1] was 4.5 folds. The “proportion of polyploid megakaryocytes” value [2] was “about 17%”, the “proportion of polyploid megakaryocytes” value [3] was “about 15%” and the “proportion of proplatelet-bearing MKs in 100 differentiated cells” value [4] was “about 46%”.
